This note sets out measurements from the PolyMetriX glass transition set.

± gives the standard deviation of the reports.

In turn, `*C(*)(F)Cl` (repeat unit) gave a glass transition temperature of 77.00 °C.

Molecule `*C(*)C(=O)OCC` (repeat unit) registered a glass transition temperature of 13.50 °C.

As to `*C(=O)c1ccc2c(c1)C(=O)N(c1c(C)cc(C)c(N3C(=O)c4ccc(*)cc4C3=O)c1C)C2=O` (repeat unit), the glass transition temperature came out at 404.00 ± 8.5 °C.

As to `*C(=O)c1ccc2c(c1)C(=O)N(c1c(CC)cc(Cc3cc(CC)c(N4C(=O)c5ccc(*)cc5C4=O)c(CC)c3)cc1CC)C2=O` (repeat unit), the glass transition temperature was 272.50 ± 33 °C.

Molecule `*C(=O)c1ccc2c(c1)C(=O)N(c1ccc(C(=O)c3cccc(N4C(=O)c5ccc(*)cc5C4=O)c3)cc1)C2=O` (repeat unit) returned a glass transition temperature of 282.00 ± 3 °C.

As to `*C(=O)c1ccc2c(c1)C(=O)N(c1ccc(Cc3ccc(N4C(=O)c5ccc(*)cc5C4=O)c(C)c3)cc1C)C2=O` (repeat unit), the glass transition temperature turned out to be 297.50 ± 18 °C.

In the case of `*C(=O)c1ccc2c(c1)C(=O)N(c1ccc(Oc3ccc(C(C)(C)c4ccc(Oc5ccc(N6C(=O)c7ccc(*)cc7C6=O)cc5)cc4)cc3)cc1)C2=O` (repeat unit), the glass transition temperature was found to be 256.00 ± 71 °C.

As to `*C(=O)c1ccc2c(c1)C(=O)N(c1cccc(N3C(=O)c4ccc(*)cc4C3=O)c1)C2=O` (repeat unit), the glass transition temperature amounted to 300.00 ± 9 °C.

Molecule `*C(C(=O)OC)C(*)C(=O)OC(C)(C)C` (repeat unit) had a glass transition temperature of 84.00 °C.

`*C(C)C(*)C(=O)OC(C)C` (repeat unit) came in with a glass transition temperature of 149.00 °C.

As for `*C(C)C(*)C(=O)OC12CC3CC(C)(CC(C)(C3)C1)C2` (repeat unit), the glass transition temperature was 194.50 °C.

Take `*C(F)(F)C(*)(F)C(F)(F)F` (repeat unit): the glass transition temperature came out at 158.50 °C.

On to `*C(F)(F)C(*)(F)OC(F)(F)C(F)(F)C(F)(F)C(F)(F)F` (repeat unit), for which the glass transition temperature was -10.00 °C.

`*C(F)(F)C(*)(F)OC(F)C(F)F` (repeat unit) yielded a glass transition temperature of 35.00 °C.

As to `*C(F)(F)C(*)(OC(F)(F)F)OC(F)(F)F` (repeat unit), the glass transition temperature is -60.00 °C.

The molecule `*C(F)(F)C1(*)OC(F)(F)C(F)(C(F)(F)F)O1` (repeat unit) displayed a glass transition temperature of 135.00 °C.

On to `*C(F)(F)C1(*)OC(F)(F)C(F)(F)O1` (repeat unit), for which the glass transition temperature came to 108.00 °C.

`*C(F)(F)C1(F)C(F)(F)C(*)(F)C(F)(F)C(F)(Cl)C1(F)F` (repeat unit) yielded a glass transition temperature of 147.00 °C.

In turn, `*C(F)(F)C1(F)C(F)(F)C(*)(F)C(F)(F)C(F)(F)C(F)(F)C1(F)F` (repeat unit) registered a glass transition temperature of 198.00 °C.

Molecule `*C(F)(F)C1(F)C(F)(F)C(*)(F)C(F)(F)C(F)(F)C1(F)F` (repeat unit) returned a glass transition temperature of 101.00 °C.

For `*C(F)C(*)(F)F` (repeat unit), the glass transition temperature came to 31.5 °C.

Take `*C(F)C(*)C(F)(F)F` (repeat unit): the glass transition temperature was 87.00 °C.

For `*C([2H])([2H])C(*)([2H])C([2H])([2H])[2H]` (repeat unit), the glass transition temperature worked out at 0.00 °C.

With `*C1(C)CC(*)(C)C(=O)N(C)C1=O` (repeat unit), the glass transition temperature was 170.00 °C.

Turning to `*CC(c1ccccc1)C1C(=O)OC(=O)C1*` (repeat unit), the glass transition temperature is 212.00 °C.

The molecule `*CC/C=C(/*)c1ccccc1` (repeat unit) gave a glass transition temperature of 39.50 °C.

The molecule `*Oc1ccc(Oc2ccc(C(=O)c3ccc(*)cc3)cc2)cc1` (repeat unit) registered a glass transition temperature of 146 ± 1.3 °C.

`*c1cc(CCCC)c(*)s1` (repeat unit) displayed a glass transition temperature of 54.50 ± 6.4 °C.

Regarding `*c1cc(CCCCCC)c(*)s1` (repeat unit), the glass transition temperature was 15.2 ± 7.3 °C.

For `*c1ccc(-c2ccc(N3C(=O)c4ccc(-c5ccc6c(c5)C(=O)N(*)C6=O)cc4C3=O)cc2C(F)(F)F)c(C(F)(F)F)c1` (repeat unit), the glass transition temperature was determined as 323.8 ± 24 °C.

Molecule `*c1ccc(Cc2ccc(N3C(=O)c4ccc(-c5ccc6c(c5)C(=O)N(*)C6=O)cc4C3=O)cc2)cc1` (repeat unit) returned a glass transition temperature of 308.00 ± 6.8 °C.

The molecule `*c1ccc(Oc2ccc(-n3c(=O)c4cc5c(=O)n(*)c(=O)c5cc4c3=O)cc2)cc1` (repeat unit) returned a glass transition temperature of 385.00 ± 20 °C.

Consider `*c1ccc(Oc2ccc(C(c3ccc(Oc4ccc(N5C(=O)c6ccc(-c7ccc8c(c7)C(=O)N(*)C8=O)cc6C5=O)cc4)cc3)(C(F)(F)F)C(F)(F)F)cc2)cc1` (repeat unit), for which the glass transition temperature was 249.50 ± 18 °C.

In turn, `*c1ccc(Oc2ccc(Oc3ccc(-n4c(=O)c5cc6c(=O)n(*)c(=O)c6cc5c4=O)cc3)cc2)cc1` (repeat unit) returned a glass transition temperature of 292.00 ± 28 °C.

In turn, `*c1ccc(Oc2ccc(Oc3ccc(N4C(=O)c5ccc(-c6ccc7c(c6)C(=O)N(*)C7=O)cc5C4=O)cc3)cc2)cc1` (repeat unit) displayed a glass transition temperature of 278.00 ± 14 °C.

In turn, `*c1ccc(Oc2cccc(Oc3ccc(N4C(=O)c5ccc(Oc6ccc7c(c6)C(=O)N(*)C7=O)cc5C4=O)cc3)c2)cc1` (repeat unit) came in with a glass transition temperature of 208.2 ± 12 °C.

As to `*c1ccc(S(=O)(=O)c2ccc(N3C(=O)c4ccc(-c5ccc6c(c5)C(=O)N(*)C6=O)cc4C3=O)cc2)cc1` (repeat unit), the glass transition temperature amounted to 340.00 ± 14 °C.

`*c1ccc(S(=O)(=O)c2ccc(N3C(=O)c4ccc(Oc5ccc6c(c5)C(=O)N(*)C6=O)cc4C3=O)cc2)cc1` (repeat unit) yielded a glass transition temperature of 286.00 ± 34 °C.

`*c1ccc2c(c1)C(=O)N(c1cc(N3C(=O)c4ccc(C(*)(C(F)(F)F)C(F)(F)F)cc4C3=O)cc(C(F)(F)F)c1)C2=O` (repeat unit) returned a glass transition temperature of 290.50 ± 9.2 °C.

The molecule `*c1ccc2c(c1)C(=O)N(c1ccc(-c3ccc(N4C(=O)c5ccc(C(*)(C(F)(F)F)C(F)(F)F)cc5C4=O)cc3C(F)(F)F)c(C(F)(F)F)c1)C2=O` (repeat unit) had a glass transition temperature of 327.00 ± 18 °C.

On to `*c1ccc2c(c1)C(=O)N(c1ccc(Oc3ccc(C(C)(C)c4ccc(Oc5ccc(N6C(=O)c7ccc(C(*)(C(F)(F)F)C(F)(F)F)cc7C6=O)cc5)cc4)cc3)cc1)C2=O` (repeat unit), for which the glass transition temperature amounted to 246.70 ± 3.3 °C.

As to `*c1ccc2c(c1)C(=O)N(c1ccc(Oc3ccc(C(c4ccc(Oc5ccc(N6C(=O)c7ccc(C(*)(C(F)(F)F)C(F)(F)F)cc7C6=O)cc5)cc4)(C(F)(F)F)C(F)(F)F)cc3)cc1)C2=O` (repeat unit), the glass transition temperature amounted to 247.00 ± 16 °C.

The molecule `*c1ccc2c(c1)C(CC(CC)CCCC)(CC(CC)CCCC)c1cc(*)ccc1-2` (repeat unit) yielded a glass transition temperature of 44.00 ± 21 °C.

The molecule `*c1ccc2c(c1)C(CCCCCCCC)(CCCCCCCC)c1cc(-c3ccc(*)c4nsnc34)ccc1-2` (repeat unit) had a glass transition temperature of 113.2 ± 1.8 °C.

Consider `*c1cccc(Oc2cccc(-n3c(=O)c4cc5c(=O)n(*)c(=O)c5cc4c3=O)c2)c1` (repeat unit), for which the glass transition temperature is 285.2 ± 2.5 °C.

In the case of `*c1cccc(Oc2cccc(Oc3cccc(N4C(=O)c5ccc(Oc6ccc7c(c6)C(=O)N(*)C7=O)cc5C4=O)c3)c2)c1` (repeat unit), the glass transition temperature came to 193.00 ± 8.5 °C.
